Laboratory results taken from ChEMBL document CHEMBL6177962, “Design, synthesis and biological evaluation of 2-arylbenzo[b]furan-4-vinylcarbonyl derivatives based on Salvianolic acid C as antioxidant neuroprotective agents for the treatment of ischemic stroke” (Eur J Med Chem, 2025).
Activity calls are given as the source filed them. No cut-off for these calls is given here.

Assays:
PC-12 [1] = test: Cytotoxicity against rat PC12 cells assessed as cell viability at 40 uM incubated for 24 hrs by CCK-8 assay relative to control; format: functional; settings: read-out: Activity
PC-12 [2] = test: Cytotoxicity against rat PC12 cells assessed as cell viability at 10 uM incubated for 24 hrs by CCK-8 assay relative to control; format: functional; settings: read-out: Activity
PC-12 [3] = test: Neuroprotective activity against t-BHP induced oxidative damage in rat PC12 cells model assessed as cell viability at 2.5 to 20 uM incubated for 24 hrs by CCK-8 assay; format: functional, cell-based; settings: dose 2.5-20 µM
PC-12 [4] = test: Antioxidant activity in t-BHP -induced rat PC12 cells at 2.5 to 20 uM; format: functional, cell-based; settings: dose 2.5-20 µM
PC-12 [5] = test: Neuroprotective activity against t-BHP induced oxidative damage in rat PC12 cells model assessed as cell viability at 10 uM incubated for 24 hrs by CCK-8 assay relative to control; format: functional; settings: read-out: Activity
PC-12 [6] = test: Neuroprotective activity against t-BHP induced oxidative damage in rat PC12 cells model assessed as attenuation of intracellular ROS level at 2.5 uM incubated for 24 hrs by DCFH-DA probe based analysis; format: functional, cell-based
PC-12 [7] = test: Neuroprotective activity against t-BHP induced oxidative damage in rat PC12 cells model assessed as attenuation of intracellular ROS level at 5 uM incubated for 24 hrs by DCFH-DA probe based analysis; format: functional, cell-based
PC-12 [8] = test: Neuroprotective activity against t-BHP induced oxidative damage in rat PC12 cells model assessed as reduction in intracellular ROS level at 10 uM incubated for 24 hrs by DCFH-DA probe based analysis; format: functional, cell-based
PC-12 [9] = test: Neuroprotective activity against t-BHP induced oxidative damage in rat PC12 cells model assessed as reduction in intracellular ROS level at 2.5 to 10 uM incubated for 24 hrs by DCFH-DA probe based flow cytometry analysis; format: functional, cell-based; settings: dose 2.5-10 µM
PC-12 [10] = test: Neuroprotective activity against t-BHP induced oxidative damage in rat PC12 cells model assessed as decrease in MDA level at 2.5 uM incubated for 24 hrs; format: functional, cell-based
PC-12 [11] = test: Neuroprotective activity against t-BHP induced oxidative damage in rat PC12 cells model assessed as decrease in MDA level at 5 uM incubated for 24 hrs; format: functional, cell-based
PC-12 [12] = test: Neuroprotective activity against t-BHP induced oxidative damage in rat PC12 cells model assessed as decrease in MDA level at 10 uM incubated for 24 hrs; format: functional, cell-based
PC-12 [13] = test: Neuroprotective activity against t-BHP induced oxidative damage in rat PC12 cells model assessed as increase in SOD activity at 2.5 uM incubated for 24 hrs; format: functional, cell-based
PC-12 [14] = test: Neuroprotective activity against t-BHP induced oxidative damage in rat PC12 cells model assessed as increase in SOD activity at 5 uM incubated for 24 hrs; format: functional, cell-based
PC-12 [15] = test: Neuroprotective activity against t-BHP induced oxidative damage in rat PC12 cells model assessed as increase in SOD activity at 10 uM incubated for 24 hrs; format: functional, cell-based
PC-12 [16] = test: Neuroprotective activity against t-BHP induced oxidative damage in rat PC12 cells model assessed as increase in NRF2 level incubated for 24 hrs by Western blot analysis; format: functional, cell-based; settings: dose 2.5-10 µM
PC-12 [17] = test: Neuroprotective activity against t-BHP induced oxidative damage in rat PC12 cells model assessed as increase in HO-1 level incubated for 24 hrs by Western blot analysis; format: functional, cell-based; settings: dose 2.5-10 µM
Rattus norvegicus [18] = test: (§1) Neuroprotective activity against cerebral ischemia-reperfusion injury in MCAO rat model assessed as reduction in infarct area at 5 to 20 mg/kg, iv treated after 2 hrs ischemia followed by reperfusion measured after 1 week of post-reperfusion by TTC staining based analysis; format: functional, organism-based; settings: dose 5-20 mg/kg, time 1.0 weeks
Rattus norvegicus [19] = test: Neuroprotective activity against cerebral ischemia-reperfusion injury in MCAO rat model assessed as reduction in infarct area at 20 mg/kg, iv treated after 2 hrs ischemia followed by reperfusion measured after 1 week of post-reperfusion by TTC staining based analysis; format: functional, organism-based; settings: time 1.0 weeks
Rattus norvegicus [20] = test: Neuroprotective activity against cerebral ischemia-reperfusion injury in MCAO rat model at 10 mg/kg, iv treated after 2 hrs ischemia followed by reperfusion measured after 1 week of post-reperfusion by barnes maze test; format: functional, organism-based; settings: time 1.0 weeks
Rattus norvegicus [21] = test: as §1, with “ROS accumulation in cortex” for “infarct area”, “dihydroethidium” for “TTC”, “based fluorescence microscopic” for “based”; format: functional, organism-based; settings: dose 5-20 mg/kg, time 1.0 weeks
Rattus norvegicus [22] = test: Neuroprotective activity against cerebral ischemia-reperfusion injury in MCAO rat model assessed as decrease in apoptotic cells in cerebral brain at 5 mg/kg, iv treated after 2 hrs ischemia followed by reperfusion measured after 1 week of post-reperfusion by TUNEL staining based analysis; format: functional, organism-based; settings: time 1.0 weeks
Rattus norvegicus [23] = test: Neuroprotective activity against cerebral ischemia-reperfusion injury in MCAO rat model assessed as decrease in apoptotic cells in cerebral brain at 10 mg/kg, iv treated after 2 hrs ischemia followed by reperfusion measured after 1 week of post-reperfusion by TUNEL staining based analysis; format: functional, organism-based; settings: time 1.0 weeks
Rattus norvegicus [24] = test: Neuroprotective activity against cerebral ischemia-reperfusion injury in MCAO rat model assessed as decrease in apoptotic cells in cerebral brain at 20 mg/kg, iv treated after 2 hrs ischemia followed by reperfusion measured after 1 week of post-reperfusion by TUNEL staining based analysis; format: functional, organism-based; settings: time 1.0 weeks
Rattus norvegicus [25] = test: In vivo activation of Nrf2 pathway in MCAO induced rat model assessed as increase in NRF2 level in brain at 5 to 20 mg/kg, iv by immunofluorescence analysis; format: functional, organism-based; settings: dose 5-20 mg/kg
Rattus norvegicus [26] = test: In vivo activation of Nrf2 pathway in MCAO induced rat model assessed as increase in NRF2 level in cytoplasm at 5 to 20 mg/kg, iv by Western blot analysis; format: functional, organism-based; settings: dose 5-20 mg/kg
Rattus norvegicus [27] = test: In vivo activation of Nrf2 pathway in MCAO induced rat model assessed as increase in NRF2 level in nucleus at 5 to 20 mg/kg, iv by Western blot analysis; format: functional, organism-based; settings: dose 5-20 mg/kg
Rattus norvegicus [28] = test: Upregulation of NRF2 level in MCAO rat model at 5 to 20 mg/kg, iv by Western blot analysis; format: functional, organism-based; settings: dose 5-20 mg/kg
Rattus norvegicus [29] = test: […] of HO-1 level rat model at 5 to 20 mg/kg, iv by Western blot analysis; format: functional, organism-based; settings: dose 5-20 mg/kg
[30] = molecular target: Kelch-like ECH-associated protein 1 (Rattus norvegicus) (UniProt P57790); test: Binding affinity to KEAP1 in rat PC12 cells assessed as thermal stabilization at 10 uM incubated for 3 hrs at 4 degreeC by CETSA; format: cell-based
Kelch-like ECH-associated protein 1 (Rattus norvegicus), sequence (P57790 whole entry): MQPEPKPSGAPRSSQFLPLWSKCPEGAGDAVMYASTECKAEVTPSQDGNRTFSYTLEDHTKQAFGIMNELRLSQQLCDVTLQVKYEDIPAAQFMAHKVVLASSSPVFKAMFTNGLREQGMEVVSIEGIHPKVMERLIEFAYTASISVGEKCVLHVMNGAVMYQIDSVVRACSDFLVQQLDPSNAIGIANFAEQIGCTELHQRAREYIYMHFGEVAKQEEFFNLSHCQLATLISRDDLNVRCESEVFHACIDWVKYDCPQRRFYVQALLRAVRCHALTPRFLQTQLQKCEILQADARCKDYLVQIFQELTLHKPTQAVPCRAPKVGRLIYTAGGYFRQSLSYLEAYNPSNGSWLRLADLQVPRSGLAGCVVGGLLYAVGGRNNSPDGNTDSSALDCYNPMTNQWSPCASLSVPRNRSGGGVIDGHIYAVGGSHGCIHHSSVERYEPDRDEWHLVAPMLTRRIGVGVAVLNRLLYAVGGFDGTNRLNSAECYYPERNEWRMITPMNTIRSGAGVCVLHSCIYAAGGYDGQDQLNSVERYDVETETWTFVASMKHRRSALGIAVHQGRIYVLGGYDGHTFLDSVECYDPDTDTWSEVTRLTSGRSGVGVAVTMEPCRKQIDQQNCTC

PC-12 [31] = test: Downregulation of KEAP1 expression in rat PC12 cells at 10 uM incubated for 3 hrs by Western blot analysis; format: functional, cell-based
[32] = Metabolic stability in rat liver microsome assessed as parent compound remaining after 60 mins; format: ADME; settings: liver microsomes, read-out: Stability
[33] = Permeability of the compound across blood brain barrier in mouse BEND3 cells at 10 uM incubated for 24 to 48 hrs by HPLC analysis; format: ADME, cell-based; settings: time 24-48 hrs, read-out: permeability

COc1ccc(/C=C/C(=O)c2ccc(O)c(O)c2)c2cc(-c3ccc(C)cc3)oc12
viability at 40 µM (PC-12 [1]): 109%
viability at 10 µM (PC-12 [2]): 101%
Activity (PC-12 [3]): Active
Activity (PC-12 [4]): Active
viability at 10 µM (PC-12 [5]): 95%
Activity (PC-12 [6]): Active
Activity (PC-12 [7]): Active
Activity (PC-12 [8]): Active
Activity (PC-12 [9]): Active
Activity (PC-12 [10]): Active
Activity (PC-12 [11]): Active
Activity (PC-12 [12]): Active
Activity (PC-12 [13]): Active
Activity (PC-12 [14]): Active
Activity (PC-12 [15]): Active
Activity (PC-12 [16]): Dose-dependent-effect
Activity (PC-12 [17]): Dose-dependent-effect
Activity (Rattus norvegicus [18]): Active
Activity (Rattus norvegicus [19]): Active
Activity (Rattus norvegicus [20]): Active
Activity (Rattus norvegicus [21]): Active
Activity (Rattus norvegicus [22]): Active
Activity (Rattus norvegicus [23]): Active
Activity (Rattus norvegicus [24]): Active
Activity (Rattus norvegicus [25]): Active
Activity (Rattus norvegicus [26]): Active
Activity (Rattus norvegicus [27]): inactive
Activity (Rattus norvegicus [28]): Active
Activity (Rattus norvegicus [29]): Active
Activity [30]: Active
Activity (PC-12 [31]): Active
remaining at 1 h [32]: 63.8%
Papp at 10 µM [33]: 7.46 ×10⁻⁶ cm/s
